Results published in patent publication US10208081B2, “Bile acid derivatives as FXR/TGR5 agonists and methods of use thereof” (Enanta Pharmaceuticals, Inc., priority 2014, dated 2019).

Target: human FXR (NR1H4) (Homo sapiens (Human), UniProt Q96RI1)
Test: Human FXR (NR1H4) Assay (Gal4 promoter driven luciferase reporter, Indigo Bioscience kit IB00601)
Type: cell-based
Conditions: for Efficacy (%): efficacy normalized to CDCA set as 100%; for EC50: potency ranges
Text: Assays Human FXR (NR1H4) Assay
Determination of a ligand mediated Gal4 promoter driven transactivation quantify ligand binding mediated activation of FXR. FXR Reporter Assay kit purchased from Indigo Bioscience (Catalogue number: IB00601) to determine the potency and efficacy of compound developed by Enanta that can induce FXR activation. The principle application of this reporter assay system is to quantify functional activity of human FXR. The assay utilizes non-human mammalian cells, CHO (Chinese hamster ovary) cells engineered to express human NR1H4 protein (referred to as FXR). Reporter cells also incorporate the cDNA encoding beetle luciferase which catalyzes the substrates and yields photon emission. Luminescence intensity of the reaction is quantified using a plate-reading luminometer, Envision. Reporter Cells include the luciferase reporter gene functionally linked to an FXR responsive promoter. Thus, quantifying changes in luciferase expression in the treated reporter cells provides a sensitive surrogate measure of the changes in FXR activity. […] The assay is according to the manufacturer's instructions. In brief, the assay was performed in white, 96 well plates using final volume of 100 ul containing cells with different doses of compounds. Retrieve Reporter Cells from −80° C. storage. Perform a rapid thaw of the frozen cells by transferring a 10 ml volume of 37° C. cell recovery medium into the tube of frozen cells. Recap the tube of Reporter Cells and immediately place it in a 37° C. water bath for 5-10 minutes. Retrieve the tube of Reporter Cell Suspension from the water bath. Sanitize the outside surface of the tube with a 70% alcohol swab, and then transfer it into the cell culture hood. Dispense 90 μl of cell suspension into each well of the 96-well Assay Plate. Transfer the plate into 37° C. incubator, allowing the cells adherent to the bottom of the well. Dilute compounds in Dilution Plate (DP), and administrate to cells at Assay Plate (AP). DMSO content of the samples was kept at 0.2%. Cells were incubated for additional 22 hours before luciferase activities were measured. Thirty minutes before intending to quantify FXR activity, remove Detection Substrate and Detection Buffer from the refrigerator and place them in a low-light area so that they may equilibrate to room temperature. Remove the plate's lid and discard all media contents by ejecting it into an appropriate waste container. Gently tap the inverted plate onto a clean absorbent paper towel to remove residual droplets. Cells will remain tightly adhered to well bottoms. Add 100 μl of luciferase detection reagent to each well of the assay plate. Allow the assay plate to rest at room temperature for at least 5 minutes following the addition of LDR. Set the instrument (Envision) to perform a single 5 second “plate shake” prior to reading the first assay well. Read time may be 0.5 second (500 mSec) per well.

human FXR (NR1H4), sequence (Q96RI1 whole entry, the tested form may be a part): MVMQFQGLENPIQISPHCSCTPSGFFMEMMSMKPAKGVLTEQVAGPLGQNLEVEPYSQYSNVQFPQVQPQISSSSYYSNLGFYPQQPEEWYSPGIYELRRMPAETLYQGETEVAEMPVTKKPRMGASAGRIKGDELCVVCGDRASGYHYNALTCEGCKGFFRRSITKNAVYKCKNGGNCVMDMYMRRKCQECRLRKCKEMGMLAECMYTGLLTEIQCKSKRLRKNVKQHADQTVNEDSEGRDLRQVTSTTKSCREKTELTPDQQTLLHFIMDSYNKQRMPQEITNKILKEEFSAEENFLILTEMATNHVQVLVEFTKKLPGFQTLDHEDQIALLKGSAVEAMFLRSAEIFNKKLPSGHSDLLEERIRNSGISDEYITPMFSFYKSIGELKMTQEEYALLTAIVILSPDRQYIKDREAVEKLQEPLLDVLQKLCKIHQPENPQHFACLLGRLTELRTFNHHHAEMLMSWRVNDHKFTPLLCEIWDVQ

Row | SMILES | Efficacy (%) | EC50 [nM]
1 | CC[C@H]1[C@@H](O)[C@@H]2[C@H](CC[C@]3(C)[C@@H]([C@H](C)CCNC(=O)NS(=O)(=O)c4cccc(N(C)C)c4)CC[C@@H]23)[C@@]2(C)CC[C@@H](O)C[C@@H]12 [Example 112] | 287 | < 100
2 | CC[C@H]1[C@@H](O)[C@@H]2[C@H](CC[C@]3(C)[C@@H]([C@H](C)CCNC(=O)NS(=O)(=O)c4ccncc4)CC[C@@H]23)[C@@]2(C)CC[C@@H](O)C[C@@H]12 [Example 49] | 236 | 1000 to 10000
3 | CC[C@H]1[C@@H](O)[C@@H]2[C@H](CC[C@]3(C)[C@@H]([C@H](C)CCNC(=O)NS(=O)(=O)c4cccc(C)c4)CC[C@@H]23)[C@@]2(C)CC[C@@H](O)C[C@@H]12 [Example 13] | 245 | < 100
4 | CC[C@H]1[C@@H](O)[C@@H]2[C@H](CC[C@]3(C)[C@@H]([C@H](C)CCNC(=O)NS(=O)(=O)c4ccc(C)c(C)c4)CC[C@@H]23)[C@@]2(C)CC[C@@H](O)C[C@@H]12 [Example 17] | 357 | < 100
5 | CC[C@H]1[C@@H](O)[C@@H]2[C@H](CC[C@]3(C)[C@@H]([C@H](C)CCNC(=O)NS(=O)(=O)C(C)(C)C)CC[C@@H]23)[C@@]2(C)CC[C@@H](O)C[C@@H]12 [Example 28] | 323 | < 100
6 | CC[C@H]1[C@@H](O)[C@@H]2[C@H](CC[C@]3(C)[C@@H]([C@H](C)CCNC(=O)NS(=O)(=O)c4ccc(F)cc4)CC[C@@H]23)[C@@]2(C)CC[C@@H](O)C[C@@H]12 [Example 94] | 361 | < 100
7 | CC[C@H]1[C@@H](O)[C@@H]2[C@H](CC[C@]3(C)[C@@H]([C@H](C)CNC(=O)NS(=O)(=O)c4cccc(OC(F)(F)F)c4)CC[C@@H]23)[C@@]2(C)CC[C@@H](O)C[C@@H]12 [Example 116] | 322 | < 100
8 | CC[C@H]1[C@@H](O)[C@@H]2[C@H](CC[C@]3(C)[C@@H]([C@H](C)CCNC(=O)NS(=O)(=O)c4cccc(C(C)(C)C)c4)CC[C@@H]23)[C@@]2(C)CC[C@@H](O)C[C@@H]12 [Example 53] | 263 | < 100
9 | CC[C@H]1[C@@H](O)[C@@H]2[C@H](CC[C@]3(C)[C@@H]([C@H](C)CCNC(=O)NS(=O)(=O)c4ccc5ccccc5c4)CC[C@@H]23)[C@@]2(C)CC[C@@H](O)C[C@@H]12 [Example 1] | 337 | < 100
10 | CC[C@H]1[C@@H](O)[C@@H]2[C@H](CC[C@]3(C)[C@@H]([C@H](C)CNC(=O)NS(=O)(=O)C4CC4)CC[C@@H]23)[C@@]2(C)CC[C@@H](O)C[C@@H]12 [Example 30] | 194 | 1000 to 10000
11 | CC[C@H]1[C@@H](O)[C@@H]2[C@H](CC[C@]3(C)[C@@H]([C@H](C)CCNC(=O)NS(=O)(=O)c4ccc5c(c4)CCN5C(C)=O)CC[C@@H]23)[C@@]2(C)CC[C@@H](O)C[C@@H]12 [Example 62] | 476 | 1000 to 10000
12 | CC[C@H]1[C@@H](O)[C@@H]2[C@H](CC[C@]3(C)[C@@H]([C@H](C)CCNC(=O)NS(=O)(=O)c4ccc(-c5cnc(C)o5)cc4C)CC[C@@H]23)[C@@]2(C)CC[C@@H](O)C[C@@H]12 [Example 79] | 249 | 100 to 1000
13 | CC[C@H]1[C@@H](O)[C@@H]2[C@H](CC[C@]3(C)[C@@H]([C@H](C)CCNS(=O)(=O)O)CC[C@@H]23)[C@@]2(C)CC[C@@H](O)C[C@@H]12 [Example 131] | 8 | 1000 to 10000
14 | CC[C@H]1[C@@H](O)[C@@H]2[C@H](CC[C@]3(C)[C@@H]([C@H](C)CCNC(=O)NS(=O)(=O)Cc4ccccc4)CC[C@@H]23)[C@@]2(C)CC[C@@H](O)C[C@@H]12 [Example 63] | 452 | 100 to 1000
15 | CC[C@H]1[C@@H](O)[C@@H]2[C@H](CC[C@]3(C)[C@@H]([C@H](C)CNC(=O)NS(=O)(=O)c4ccc5c(c4)OCO5)CC[C@@H]23)[C@@]2(C)CC[C@@H](O)C[C@@H]12 [Example 117] | 305 | < 100
16 | CC[C@H]1[C@@H](O)[C@@H]2[C@H](CC[C@]3(C)[C@@H]([C@H](C)CCCCNS(=O)(=O)C(C)(C)C)CC[C@@H]23)[C@@]2(C)CC[C@@H](O)C[C@@H]12 [Example 136] | 159 | 1000 to 10000
17 | CC[C@H]1[C@@H](O)[C@@H]2[C@H](CC[C@]3(C)[C@@H]([C@H](C)CCCNC(=O)NS(=O)(=O)c4ccc5ccccc5c4)CC[C@@H]23)[C@@]2(C)CC[C@@H](O)C[C@@H]12 [Example 19] | 323 | 100 to 1000
18 | CC[C@H]1[C@@H](O)[C@@H]2[C@H](CC[C@]3(C)[C@@H]([C@H](C)CCNC(=O)NS(=O)(=O)N4CCOCC4)CC[C@@H]23)[C@@]2(C)CC[C@@H](O)C[C@@H]12 [Example 37] | 254 | < 100
19 | CC[C@H]1[C@@H](O)[C@@H]2[C@H](CC[C@]3(C)[C@@H]([C@H](C)CCNC(=O)NS(=O)(=O)c4cnn(CC)c4)CC[C@@H]23)[C@@]2(C)CC[C@@H](O)C[C@@H]12 [Example 109] | 219 | 100 to 1000
20 | CC[C@H]1[C@@H](O)[C@@H]2[C@H](CC[C@]3(C)[C@@H]([C@H](C)CCNC(=O)NS(=O)(=O)c4cccs4)CC[C@@H]23)[C@@]2(C)CC[C@@H](O)C[C@@H]12 [Example 21] | 402 | 100 to 1000
21 | CC[C@H]1[C@@H](O)[C@@H]2[C@H](CC[C@]3(C)[C@@H]([C@H](C)CNS(=O)(=O)c4cccc(N5CCCCC5)c4)CC[C@@H]23)[C@@]2(C)CC[C@@H](O)C[C@@H]12 [Example 142] | 7 | –
22 | CC[C@H]1[C@@H](O)[C@@H]2[C@H](CC[C@]3(C)[C@@H]([C@H](C)CCNC(=O)NS(=O)(=O)C(F)(F)F)CC[C@@H]23)[C@@]2(C)CC[C@@H](O)C[C@@H]12 [Example 104] | 298 | 1000 to 10000
23 | CC[C@H]1[C@@H](O)[C@@H]2[C@H](CC[C@]3(C)[C@@H]([C@H](C)CCNC(=O)NS(=O)(=O)C[C@]45CCC(CC4=O)C5(C)C)CC[C@@H]23)[C@@]2(C)CC[C@@H](O)C[C@@H]12 [Example 60] | 346 | < 100
24 | CC[C@H]1[C@@H](O)[C@@H]2[C@H](CC[C@]3(C)[C@@H]([C@H](C)CNC(=O)NS(=O)(=O)c4cccc(N5CCCCC5)c4)CC[C@@H]23)[C@@]2(C)CC[C@@H](O)C[C@@H]12 [Example 121] | 199 | 100 to 1000
25 | CC[C@H]1[C@@H](O)[C@@H]2[C@H](CC[C@]3(C)[C@@H]([C@H](C)CCNC(=O)NS(=O)(=O)N4CCC5(CC4)CC5)CC[C@@H]23)[C@@]2(C)CC[C@@H](O)C[C@@H]12 [Example 86] | 390 | < 100
26 | CC[C@H]1[C@@H](O)[C@@H]2[C@H](CC[C@]3(C)[C@@H]([C@H](C)CCNC(=O)NS(=O)(=O)C4CCCC4)CC[C@@H]23)[C@@]2(C)CC[C@@H](O)C[C@@H]12 [Example 27] | 275 | < 100
27 | CC[C@H]1[C@@H](O)[C@@H]2[C@H](CC[C@]3(C)[C@@H]([C@H](C)CCNC(=O)NS(=O)(=O)N4C[C@@H](C)O[C@H](C)C4)CC[C@@H]23)[C@@]2(C)CC[C@@H](O)C[C@@H]12 [Example 82] | 321 | < 100
28 | CC[C@H]1[C@@H](O)[C@@H]2[C@H](CC[C@]3(C)[C@@H]([C@H](C)CCNC(=O)NS(=O)(=O)N4CCN(C(C)(C)C)CC4)CC[C@@H]23)[C@@]2(C)CC[C@@H](O)C[C@@H]12 [Example 84] | 351 | 100 to 1000
29 | CC[C@H]1[C@@H](O)[C@@H]2[C@H](CC[C@]3(C)[C@@H]([C@H](C)CCNC(=O)NS(=O)(=O)c4ccc(N(C)C)cc4)CC[C@@H]23)[C@@]2(C)CC[C@@H](O)C[C@@H]12 [Example 119] | 363 | < 100
30 | CC[C@H]1[C@@H](O)[C@@H]2[C@H](CC[C@]3(C)[C@@H]([C@H](C)CCNC(=O)NS(=O)(=O)C4CC4)CC[C@@H]23)[C@@]2(C)CC[C@@H](O)C[C@@H]12 [Example 5] | 369 | 100 to 1000
